In brackets after ≈: the same amount, converted by molar mass.

15 compounds from paper PMC8745223, “Novel 1,3,5-Triazinyl Aminobenzenesulfonamides Incorporating Aminoalcohol, Aminochalcone and Aminostilbene Structural Motifs as Potent Anti-VRE Agents, and Carbonic Anhydrases I, II, VII, IX, and XII Inhibitors” (International Journal of Molecular Sciences, 2021) can be followed below.

For experiment [1], the target named is T1, hCA VII (Homo sapiens, UniProt P43166).
T1 construct: gene CA7; recombinant
The experiment can be described thus: stopped-flow CO2 hydration assay. In kind it is biochemical. In a few lines: (§1)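 Ki was derived by non-linear least squares using the Cheng–Prusoff equation. The underlying data were initial rates of CO2 hydration by recombinant human carbonic anhydrase, measured by stopped-flow for 10–100 s with 0.2 mM phenol red (557 nm), 20 mM Hepes pH 7.5, 20 mM Na2SO4 and 1.7–17 mM CO2, after a 15 min room-temperature preincubation of enzyme with inhibitor. Uncatalysed rates were subtracted, at least six traces were used per rate, and values were averaged over three or more determinations.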

Experiment [2] has as its target T2, hCA II (Homo sapiens, UniProt P00918).
T2 construct: gene CA2; recombinant
The experiment can be described thus: stopped-flow CO2 hydration assay. In kind it is biochemical. In a few lines:
as §1

Experiment [3] addresses T3, hCA I (Homo sapiens, UniProt P00915).
T3 construct: gene CA1; recombinant
The experiment in a line: stopped-flow CO2 hydration assay. The experiment is classed as biochemical. In a few lines: as §1

The target in experiment [4] is T4, hCA IX (Homo sapiens, UniProt Q16790).
T4 construct: gene CA9; recombinant
The experiment in a line: stopped-flow CO2 hydration assay. The experiment is classed as biochemical. In a few lines: as §1

Experiment [5] concerns T5, E. faecalis ATCC 29212 (EF).
T5 construct: ATCC 29212
The experiment can be described thus: microbe, parasite or virus in culture. Also on record: broth microdilution MIC in BHI, Alamar Blue read-out, 37 °C. The conditions noted are these: Enterococcus faecalis, ATCC29212, 24 h. As for the experimental part:
(§2) The inhibition activity against enterococci was evaluated by the microtitration broth method according to the Clinical and Laboratory Standards Institute with some modifications. The compounds were dissolved in DMSO and serially diluted in Brain Hearth Infusion (BHI) to reach concentrations 256–2 µg/mL. […] The experiment was repeated at least three times. All the investigated compounds were tested on their anti-staphylococcal activity against three clinical isolates of methicillin-resistant Staphylococcus aureus (MRSA) and S. aureus ATCC 29213 as the reference and quality control strain.

In experiment [6] the test system is T6, Enterococcus faecalis VRE 725 B.
T6 construct: VRE 725B (vanA clinical isolate)
The experiment can be described thus: organism not typed. Set-up: broth microdilution MIC in BHI, Alamar Blue read-out, 37 °C. The conditions noted are these: 24 h. The method, then: as §2, with “strain. […] All the compounds were tested against Enterococcus faecalis ATCC 29212 as the reference strain and three isolates from American crows of vanA-carrying vancomycin-resistant E. faecalis (VRE), and the activities, expressed as minimum inhibitory concentrations (MICs), are listed in Table 3.” for “strain.”

The subject of experiment [7] is T7, Enterococcus faecalis VRE 368.
T7 construct: VRE 368 (vanA clinical isolate)
The experiment in a line: organism not typed. The conditions noted are these: 24 h. Set-up: broth microdilution MIC in BHI, Alamar Blue read-out, 37 °C. The method, then:
as §2

For experiment [8], the system named is T8, Enterococcus faecalis VRE 342 B.
T8 construct: VRE 342 B (vanA clinical isolate)
The experiment in a line: organism not typed. Set-up: broth microdilution MIC in BHI, Alamar Blue read-out, 37 °C. The following applies: 24 h. The method, then: as §2

The target in experiment [9] is T9, hCA XII (Homo sapiens, UniProt O43570).
T9 construct: gene CA12; recombinant
The experiment can be described thus: stopped-flow CO2 hydration assay. The experiment is classed as biochemical. In a few lines:
as §1

T3 sequence (P00915 2-261): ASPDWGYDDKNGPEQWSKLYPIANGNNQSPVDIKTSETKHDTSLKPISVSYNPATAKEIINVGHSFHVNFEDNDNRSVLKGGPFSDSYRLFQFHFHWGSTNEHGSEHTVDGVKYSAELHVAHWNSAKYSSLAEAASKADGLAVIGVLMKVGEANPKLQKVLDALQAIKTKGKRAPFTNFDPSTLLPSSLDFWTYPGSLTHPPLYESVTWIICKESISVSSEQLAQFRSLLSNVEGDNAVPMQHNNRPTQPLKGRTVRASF
T1 sequence (P43166 whole entry): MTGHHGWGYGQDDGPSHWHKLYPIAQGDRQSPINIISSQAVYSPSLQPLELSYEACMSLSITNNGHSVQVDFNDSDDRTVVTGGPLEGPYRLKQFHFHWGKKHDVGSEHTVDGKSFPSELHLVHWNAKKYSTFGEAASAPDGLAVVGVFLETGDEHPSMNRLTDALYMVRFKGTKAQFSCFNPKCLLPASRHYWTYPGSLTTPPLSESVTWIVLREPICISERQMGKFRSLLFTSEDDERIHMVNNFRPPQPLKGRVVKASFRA
T9 sequence (O43570 25-354): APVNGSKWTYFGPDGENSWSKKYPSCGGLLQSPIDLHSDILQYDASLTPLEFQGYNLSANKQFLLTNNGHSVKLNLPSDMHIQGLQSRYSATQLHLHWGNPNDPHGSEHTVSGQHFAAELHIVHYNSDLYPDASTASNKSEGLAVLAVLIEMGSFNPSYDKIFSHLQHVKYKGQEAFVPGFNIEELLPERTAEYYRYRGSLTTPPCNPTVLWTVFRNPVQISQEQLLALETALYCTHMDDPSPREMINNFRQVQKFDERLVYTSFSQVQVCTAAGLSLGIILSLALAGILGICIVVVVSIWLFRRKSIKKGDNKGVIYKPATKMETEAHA

`NS(=O)(=O)c1ccc(Nc2nc(Cl)nc(NCCCO)n2)cc1` [compound 1, 1]: the Ki in experiment [1] was 128 nM; in [2], 44.8 nM; in [3], 26.8 nM; in [4], 229 nM.
`NS(=O)(=O)c1ccc(CNc2nc(Cl)nc(NCCCO)n2)cc1` [compound 5, 5]: the Ki in experiment [1] came to 332 nM.
`NS(=O)(=O)c1ccc(CNc2nc(NCCCO)nc(Nc3ccc(C(=O)/C=C/c4ccccc4)cc3)n2)cc1` [compound 13, 13]: the MIC in [5] came to 228 µM (≈ 128 µg/mL); in [6], 228 µM (≈ 128 µg/mL); in experiment [7], 114 µM (≈ 63.8 µg/mL); in [8], 228 µM (≈ 128 µg/mL). Also, the Ki in [1] was found to be 95.7 nM; in [2], 277 nM; in experiment [3] it was 1960 nM; in [4] it was 4630 nM.
Turning to `NS(=O)(=O)c1ccc(CNc2nc(NCCCO)nc(Nc3ccc(C(=O)/C=C/c4ccccc4O)cc3)n2)cc1` [compound 14, 14], the MIC was 111 µM (≈ 63.9 µg/mL) in experiment [5], over 444 µM in experiment [6], 111 µM (≈ 63.9 µg/mL) in [7] and 111 µM (≈ 63.9 µg/mL) in [8]. The Ki in experiment [1] worked out at 180 nM; in [2] it was 35.4 nM; in experiment [3], 5400 nM; in [4], 623 nM.
With `NS(=O)(=O)c1ccc(CNc2nc(NCCCO)nc(Nc3ccc(C(=O)/C=C/c4ccc(O)cc4)cc3)n2)cc1` [compound 16, (E)-4-[({4-({4-[3-(4-Hydroxyphenyl)acryloyl]phenyl}amino)-6-[(3-hydroxypropyl)amino]-1,3,5-triazin-2-yl}amino)methyl]benzenesulfonamide], the MIC in experiment [5], in [6], in [7] and in [8] was over 444 µM in each case. The Ki in experiment [1] was 201 nM; in experiment [2] it was 36 nM; in [3], 800 nM; in [4] it was 161 nM.
In the case of `NS(=O)(=O)c1ccc(CCNc2nc(Cl)nc(NCCCO)n2)cc1` [compound 18, 18], the MIC in experiment [5] was 330 µM (≈ 128 µg/mL); in [6], 661 µM (≈ 256 µg/mL); in experiment [7], 661 µM (≈ 256 µg/mL); in experiment [8], 330 µM (≈ 128 µg/mL). For the same compound, affinity in experiment [1] was put at a Ki of 75.7 nM.
As to `NS(=O)(=O)c1ccc(CCNc2nc(Cl)nc(NCC(O)CO)n2)cc1` (stereo not shown) [compound 19, 19], the MIC in experiment [5], in experiment [6], in experiment [7] and in [8] was over 635 µM in each case. Moreover, affinity in experiment [1] was put at a Ki of 40.7 nM.
Take `NS(=O)(=O)c1ccc(CCNc2nc(NCCCO)nc(Nc3ccc(C(=O)/C=C/c4ccccc4O)cc3)n2)cc1` [compound 22, 22]: the MIC in [5], in experiment [6], in experiment [7] and in [8] was 108 µM (≈ 63.7 µg/mL) each time. The Ki is 283 nM in [1], 939 nM in experiment [2], 7700 nM in experiment [3] and over 10000 nM in experiment [4].
Take `NS(=O)(=O)c1ccc(CCNc2nc(Nc3ccc(O)cc3)nc(Nc3ccc(C(=O)/C=C/c4ccccc4O)cc3)n2)cc1` [compound 24, 24]: the MIC in [5] came to 51.3 µM (≈ 32 µg/mL); in experiment [6] it was 102 µM (≈ 63.6 µg/mL); in [7], 51.3 µM (≈ 32 µg/mL); in experiment [8], 51.3 µM (≈ 32 µg/mL). The Ki turned out to be 281 nM in [1], 63.8 nM in [2], 5010 nM in experiment [3] and 227 nM in [4].
In the case of `NS(=O)(=O)c1ccc(CCNc2nc(NCCCO)nc(Nc3ccc(C(=O)/C=C/c4cccc(O)c4)cc3)n2)cc1` [compound 25, (E)-4-[2-({4-({4-[3-(3-Hydroxyphenyl)acryloyl]phenyl}amino)-6-[(3-hydroxypropyl)amino]-1,3,5-triazin-2-yl}amino)ethyl]benzenesulfonamide], the MIC in experiment [5] was determined as 27.1 µM (≈ 16 µg/mL); in experiment [6], 108 µM (≈ 63.7 µg/mL); in [7], 27.1 µM (≈ 16 µg/mL); in experiment [8] it was 27.1 µM (≈ 16 µg/mL). Moreover, the Ki in experiment [1] was 186 nM; in experiment [2], 4130 nM; in [3], 7490 nM; in [4], over 10000 nM.
With `NS(=O)(=O)c1ccc(CCNc2nc(Nc3ccc(O)cc3)nc(Nc3ccc(C(=O)/C=C/c4cccc(O)c4)cc3)n2)cc1` [compound 26, (E)-4-[2-({4-({4-[3-(3-Hydroxyphenyl)acryloyl]phenyl}amino)-6-[(4-hydroxyphenyl)amino]-1,3,5-triazin-2-yl}amino)ethyl]benzenesulfonamide], the MIC was 51.3 µM (≈ 32 µg/mL) in [5], 51.3 µM (≈ 32 µg/mL) in experiment [6], 25.6 µM (≈ 16 µg/mL) in experiment [7] and 51.3 µM (≈ 32 µg/mL) in experiment [8]. Also, the Ki was 42.1 nM in [1], 1340 nM in [2], 6630 nM in experiment [3] and over 10000 nM in experiment [4].
As for `NS(=O)(=O)c1ccc(CCNc2nc(NCCCO)nc(Nc3ccc(C(=O)/C=C/c4ccc(O)cc4)cc3)n2)cc1` [compound 27, (E)-4-[2-({4-({4-[3-(4-Hydroxyphenyl)akryloyl]phenyl}amino)-6-[(3-hydroxypropyl)amino]-1,3,5-triazin-2-yl}amino)ethyl]benzenesulfonamide], the MIC in experiment [5] was over 434 µM; in experiment [6] it was 434 µM (≈ 256 µg/mL); in [7], over 434 µM; in [8], over 434 µM. Moreover, the Ki in experiment [1] is 459 nM; in experiment [2], 28.8 nM; in experiment [3], 8960 nM; in experiment [4], over 10000 nM.
Consider `NS(=O)(=O)c1ccc(CCNc2nc(Nc3ccc(O)cc3)nc(Nc3ccc(C(=O)/C=C/c4ccc(O)cc4)cc3)n2)cc1` [compound 29, (E)-4-[2-({4-({4-[3-(4-Hydroxyphenyl)acryloyl]phenyl}amino)-6-[(4-hydroxyphenyl)amino]-1,3,5-triazin-2-yl}amino)ethyl]benzenesulfonamide], for which the MIC was found to be 25.6 µM (≈ 16 µg/mL) in experiment [5], 51.3 µM (≈ 32 µg/mL) in experiment [6], 102 µM (≈ 63.6 µg/mL) in experiment [7] and 25.6 µM (≈ 16 µg/mL) in experiment [8]. The Ki was 88.6 nM in [1], 730 nM in experiment [2], 5810 nM in experiment [3] and over 10000 nM in experiment [4].
For `NS(=O)(=O)c1ccc(CCNc2nc(NCc3ccc(S(N)(=O)=O)cc3)nc(Nc3ccc(/C=C/c4cccc(O)c4)cc3)n2)cc1` [compound 40, (E)-4-{2-[(4-{[4-(3-Hydroxystyryl)phenyl]amino}-6-[(4-sulfamoylbenzyl)amino]-1,3,5-triazin-2-yl)amino]ethyl}benzenesulfonamide], the MIC came to 190 µM (≈ 128 µg/mL) in experiment [5], 190 µM (≈ 128 µg/mL) in experiment [6], 380 µM (≈ 256 µg/mL) in [7] and 190 µM (≈ 128 µg/mL) in [8]. Besides, the Ki in experiment [2] was 18.9 nM; in experiment [3], 48.8 nM; in experiment [9], 60.5 nM; in [4], 20.3 nM.
Consider `NS(=O)(=O)c1ccc(CCNc2nc(NCC(O)CO)nc(Nc3ccc(/C=C/c4ccc(O)cc4)cc3)n2)cc1` (stereo not shown) [compound 42, (E)-4-{2-[(4-[(2,3-Dihydroxypropyl)amino]-6-{[4-(4-hydroxystyryl)phenyl]amino}-1,3,5-triazin-2-yl)amino]ethyl}benzenesulfonamide], for which the MIC in experiment [5] was determined as 55.4 µM (≈ 32 µg/mL); in experiment [6] it was 221 µM (≈ 128 µg/mL); in [7], 221 µM (≈ 128 µg/mL); in [8] it was 110 µM (≈ 63.5 µg/mL). The Ki in experiment [2] was 96.3 nM; in [3] it was 43.5 nM; in experiment [9], 9.7 nM; in experiment [4], 258 nM.

As usually defined, the Ki is a measure of affinity in units of concentration, obtained from inhibition or displacement.
